In patent US20220031871A1, “ANTIBODIES FOR CHELATED RADIONUCLIDES AND CLEARING AGENTS” (Hoffmann-La Roche Inc., priority 2018, published 2022):
Read-outs that look alike come from different tables or passages of the source.

Assays:
[1] = Stability of metal-DOTAM in blood (spontaneous Ca-DOTAM formation); format: in vitro ADME, mouse
From the text: (§1) The initial choice for quenching was Cu, thus replacing unchelated DOTAM with quenched, non-competing Cu-DOTAM, and a large number of studies within the CEA-PRIT program were executed using this condition. However, it was later discovered that the Cu-DOTAM complex was, in fact, not stable in vivo, and a study was undertaken to assess its stability compared with alternative quenching ions in human and mouse serum, plasma, and blood.

[2] = as above; format: in vitro ADME, human
From the text: as §1

SMILES	spontaneous Ca-DOTAM formation [1]	spontaneous Ca-DOTAM formation [2] [%]	spontaneous Ca-DOTAM formation ([1]; mouse blood, 35 minutes p.i.) [%]	spontaneous Ca-DOTAM formation ([2]; human blood, 35 minutes p.i.) [%]
NC(=O)CN1CCN(CC(N)=O)CCN(CC(N)=O)CCN(CC(N)=O)CC1.[Cu+2] [Cu-DOTAM]	approximately 25%	~30	–	–
NC(=O)CN1CCN(CC(N)=O)CCN(CC(N)=O)CCN(CC(N)=O)CC1.[Pb+2] [Pb-DOTAM]	–	–	4	4
NC(=O)CN1CCN(CC(N)=O)CCN(CC(N)=O)CCN(CC(N)=O)CC1.[Zn+2] [Zn-DOTAM]	0%	0	–	–
